Assay results taken from US20160219881A1, “HERBICIDALLY ACTIVE 2-HALOGEN-4-ALKYNYL-PHENYL-PYRAZOLIDINE-DIONE OR PYRROLIDINE-DIONE DERIVATIVES” (SYNGENTA LIMITED, priority 2013, published 2016).

Experiments:
[1] = test system: Echinochloa crus-galli (ECHCG); test: Test 1A glasshouse assay, pre-emergence herbicidal activity; format: in vivo; settings: 312 h, 13 days after application, read-out: Pre-Emergence Herbicidal Activity (% Phytotoxicity) ECHCG
Experimental: (§1) Seeds of a variety of test species are sown in standard soil (usually sandy soil) in pots. After cultivation for one day (pre-emergence) or after 8 days cultivation (post-emergence) under controlled conditions in a glasshouse (at 24/16° C., day/night; 14 hours light; 65% humidity), the plants are sprayed with an aqueous spray solution derived from the formulation of the technical active ingredient (compound) in acetone/water (50:50) solution containing 0.5% Tween 20 (polyoxyethylene sorbitan monolaurate, CAS RN 9005-64-5). The test plants are then grown under controlled conditions in a glasshouse (at 24/16° C., day/night; 14 hours light; 65% humidity) and watered twice daily. 13 days after application of the test compounds, for pre- and post-emergence, the test is evaluated visually for percentage phytotoxicity to each plant (where 100%=total damage to plant; 0%=no damage to plant).
(§2) Alopecurus myosuroides (ALOMY), Setaria faberi (SETFA), Echinochloa crus-galli (ECHCG), Amaranthus retroflexus (AMARE), and Abutilon theophasti Medik. (ABUTH, common English name “velvetleaf”). Of these, Alopecurus myosuroides (ALOMY), Setaria faberi (SETFA), and Echinochloa crus-galli (ECHCG) are grassy monocotyledonous weeds. […]

[2] = test system: Echinochloa crus-galli (ECHCG); test: Test 1A glasshouse assay, post-emergence herbicidal activity; format: in vivo; settings: 312 h, 13 days after application, read-out: Post-Emergence Herbicidal Activity (% Phytotoxicity) ECHCG
Experimental: as §1, §2

[3] = test system: Alopecurus myosuroides (ALOMY); test: as above; format: in vivo; settings: 312 h, 13 days after application, read-out: Post-Emergence Herbicidal Activity (% Phytotoxicity) ALOMY
Experimental: as §1, §2

[4] = test system: Amaranthus retroflexus (AMARE); test: Test 1A glasshouse assay, pre-emergence herbicidal activity; format: in vivo; settings: 312 h, 13 days after application, read-out: Pre-Emergence Herbicidal Activity (% Phytotoxicity) AMARE
Experimental: as §1
(§3) Alopecurus myosuroides (ALOMY), Setaria faberi (SETFA), Echinochloa crus-galli (ECHCG), Amaranthus retroflexus (AMARE), and Abutilon theophasti Medik. (ABUTH, common English name “velvetleaf”). Of these, Alopecurus myosuroides (ALOMY), Setaria faberi (SETFA), and Echinochloa crus-galli (ECHCG) are grassy monocotyledonous weeds.

[5] = test system: Setaria faberi (SETFA); test: as above; format: in vivo; settings: 312 h, 13 days after application, read-out: Pre-Emergence Herbicidal Activity (% Phytotoxicity) SET FA
Experimental: as §1, §3

[6] = test system: Abutilon theophasti Medik. (ABUTH); test: as above; format: in vivo; settings: 312 h, 13 days after application, read-out: Pre-Emergence Herbicidal Activity (% Phytotoxicity) ABUTH
Experimental: as §1, §3

[7] = test system: Alopecurus myosuroides (ALOMY); test: as above; format: in vivo; settings: 312 h, 13 days after application, read-out: Pre-Emergence Herbicidal Activity (% Phytotoxicity) ALOMY
Experimental: as §1, §3
(§4) Lolium perenne (LOLPE), Triticum aestivum (TRZAW, winter wheat), Alopecurus myosuroides (ALOMY), Echinochloa crus-galli (ECHCG), and Avena fatua (AVEFA). All these are grassy monocotyledonous weeds and/or (for wheat) grassy crops.

[8] = test system: Amaranthus retroflexus (AMARE); test: Test 1A glasshouse assay, post-emergence herbicidal activity; format: in vivo; settings: 312 h, 13 days after application, read-out: Post-Emergence Herbicidal Activity (% Phytotoxicity) AMARE
Experimental: as §1, §3

[9] = test system: Setaria faberi (SETFA); test: as above; format: in vivo; settings: 312 h, 13 days after application, read-out: Post-Emergence Herbicidal Activity (% Phytotoxicity) SET FA
Experimental: as §1, §3

[10] = test system: Abutilon theophasti Medik. (ABUTH); test: as above; format: in vivo; settings: 312 h, 13 days after application, read-out: Post-Emergence Herbicidal Activity (% Phytotoxicity) ABUTH
Experimental: as §1, §3

[11] = test system: Johnsongrass (Sorghum halepense); settings: gibberellic acid mixed with clethodim; cited from earlier work
[12] = test system: volunteer corn; settings: gibberellic acid mixed with clethodim; cited from earlier work
[13] = test system: Triticum aestivum (TRZAW, winter wheat, variety ‘Hereward’); test: Test 1A glasshouse assay, post-emergence herbicidal activity; format: in vivo; settings: 312 h, 250 g/ha, 13 days after application, read-out: Post-Emergence Herbicidal Activity (% Phytotoxicity) TRZAW
Experimental: as §1
(§5) Lolium perenne (LOLPE), Triticum aestivum (TRZAW, winter wheat, variety ‘Hereward’), Alopecurus myosuroides (ALOMY), Echinochloa crus-galli (ECHCG), and Avena fatua (AVEFA). All these are grassy monocotyledonous weeds and/or (for wheat) grassy crops.

[14] = test system: Lolium perenne (LOLPE); test: as above; format: in vivo; settings: 312 h, 250 g/ha, 13 days after application, read-out: Post-Emergence Herbicidal Activity (% Phytotoxicity) LOLPE
Experimental: as §1, §5

[15] = test system: Avena fatua (AVEFA); test: as above; format: in vivo; settings: 312 h, 250 g/ha, 13 days after application, read-out: Post-Emergence Herbicidal Activity (% Phytotoxicity) AVEFA
Experimental: as §1, §5

[16] = test system: Triticum aestivum (TRZAW, winter wheat); test: Test 1A glasshouse assay, pre-emergence herbicidal activity; format: in vivo; settings: 312 h, 250 g/ha, 13 days after application, read-out: Pre-Emergence Herbicidal Activity (% Phytotoxicity) TRZAW
Experimental: as §1, §4

[17] = test system: Lolium perenne (LOLPE); test: as above; format: in vivo; settings: 312 h, 250 g/ha, 13 days after application, read-out: Pre-Emergence Herbicidal Activity (% Phytotoxicity) LOLPE
Experimental: as §1, §4

[18] = test system: Avena fatua (AVEFA); test: as above; format: in vivo; settings: 312 h, 250 g/ha, 13 days after application, read-out: Pre-Emergence Herbicidal Activity (% Phytotoxicity) AVEFA
Experimental: as §1, §4

Compound	inhibition at 30 g/ha [1]	inhibition at 250 g/ha [1]	inhibition at 30 g/ha [2]	inhibition at 250 g/ha [2]	inhibition at 30 g/ha [3]	inhibition at 250 g/ha [3]	inhibition at 30 g/ha [4]	inhibition at 250 g/ha [4]	inhibition at 30 g/ha [5]	inhibition at 250 g/ha [5]	inhibition at 30 g/ha [6]	inhibition at 250 g/ha [6]	inhibition at 30 g/ha [7]	inhibition at 250 g/ha [7]	inhibition at 30 g/ha [8]	inhibition at 250 g/ha [8]	inhibition at 30 g/ha [9]	inhibition at 250 g/ha [9]	inhibition at 30 g/ha [10]	inhibition at 250 g/ha [10]	also measured
CC#Cc1cc(C)c(C2C(=O)N3CCCCN3C2=O)c(C)c1 [Compound A18]	60%	90%	20%	100%	50%	80%	20%	40%	50%	90%	40%	50%	60%	100%	40%	80%	70%	90%	70%	80%	–
CC#Cc1cc(C)c(C2C(=O)N3CCOCCN3C2=O)c(C)c1 [Compound A28]	80%	100%	80%	100%	60%	90%	20%	30%	50%	100%	10%	10%	70%	100%	10%	30%	70%	100%	60%	70%	–
C=C1C[C@]23C[C@@]1(O)CC[C@H]2[C@@]12C=C[C@H](O)[C@@](C)(C(=O)O1)[C@H]2[C@@H]3C(=O)O [gibberellic acid]	–	–	–	–	–	–	–	–	–	–	–	–	–	–	–	–	–	–	–	–	control and/or speed of control of Johnsongrass (Sorghum halepense) [11]: increased clethodim's control and/or speed of control; control and/or speed of control of volunteer corn [12]: increased clethodim's control and/or speed of control
CC#Cc1cc(C)c(C2C(=O)N(CC)N(CC)C2=O)c(C)c1 [Compound A6]	–	80%	40%	80%	20%	80%	–	70%	–	70%	–	30%	–	50%	0%	30%	70%	80%	30%	30%	–
CC#Cc1cc(C)c(C2C(=O)CN(Cc3ccccn3)C2=O)c(C)c1 (stereo not shown) [Compound A48, 3-(2,6-dimethyl-4-prop-1-ynyl-phenyl)-1-(2-pyridylmethyl)pyrrolidine-2,4-dione]	–	80%	–	70%	–	90%	–	–	–	–	–	–	–	90%	–	–	–	–	–	–	inhibition at 250 g/ha [13]: 30%; inhibition at 250 g/ha [14]: 70%; inhibition at 250 g/ha [15]: 20%; inhibition at 250 g/ha [16]: 40%; inhibition at 250 g/ha [17]: 80%; inhibition at 250 g/ha [18]: 40%
